Some test systems named below: A498; ACHN; HCC 2998; HL-60; HT-29; K562; MDA-N; NCI-H23; OVCAR-4; OVCAR-5; OVCAR-8; RXF 393; SN12C; SNB-75; SR; SW-620; UACC-257; UACC-62; CAKI-1.
What all share (assay): NCI tumour cell line growth inhibition, 48 h

Structures are written as SMILES.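 Method: 48-hour compound exposure of cells in 96-well plates, five concentrations, linear interpolation of endpoints. The concentration for 50% growth inhibition is given as GI50.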 Activity calls are given as the source filed them. Rule as the data show it: active = GI50 up to about 1.1 µM and inactive = higher.

For the molecule `CCCCCC(=O)N[C@@H](c1ccccc1)C(O)C(=O)OC1C[C@@]2(O)C(OC(=O)c3ccccc3)C3[C@](C)(C(=O)[C@H](O)C(=C1C)C2(C)C)C(OC1OCC(O)C(O)C1O)C[C@H]1OC[C@@]31OC(C)=O` (stereo not given in full), the GI50 with A498 is 25.5 µM (inactive); in the assay on ACHN, > 89.1 µM (inactive); with HCC 2998, 1.6 µM (inactive); in the assay with HL-60 it was 0.542 µM (active); in the assay on HT-29 it was 1.19 µM (inactive); with K562 it was 0.966 µM (active). Moreover, the GI50 is 0.078 µM (active) in the assay on MDA-N; 3.68 µM (inactive) in the assay on NCI-H23; > 100 µM (inactive) with OVCAR-4; > 20.7 µM (inactive) in the assay on OVCAR-5; 6.35 µM (inactive) in the assay on OVCAR-8; 1.98 µM (inactive) in the assay on RXF 393. Moreover, the GI50 in the assay with SN12C was 3.54 µM (inactive); with SNB-75, 0.147 µM (active); with SR, 2.41 µM (inactive); in the assay with SW-620, 16.1 µM (inactive); in the assay on UACC-257, > 100 µM (inactive); in the assay with UACC-62, 3.57 µM (inactive).
As for `OCC1OC(NCCNCCNC2OC(CO)C(O)C(O)C2O)C(O)C(O)C1O` (stereo not given), the GI50 in the assay with A498, in the assay on ACHN, in the assay on HCC 2998, in the assay with HL-60, in the assay with HT-29 and with K562 was > 100 µM (inactive) each time. Also, the GI50 with MDA-N, in the assay with NCI-H23, in the assay with OVCAR-5, in the assay with OVCAR-8, in the assay on RXF 393 and with SN12C was > 100 µM (inactive) throughout. Moreover, the GI50 with SNB-75, in the assay with SR, in the assay with SW-620, with UACC-257 and with UACC-62 was > 100 µM (inactive) each time.
With `CCC/C=C/c1cc2c(cc1O)CC[C@@H]1[C@@H]2CC[C@]2(C)[C@@H](O)CC[C@@H]12`, the GI50 with A498 was 17.2 µM (inactive); in the assay on ACHN, 16.7 µM (inactive); in the assay with CAKI-1, 21.2 µM (inactive); in the assay with HCC 2998 it was 21.5 µM (inactive); in the assay with HT-29, 18.4 µM (inactive); with K562, 16.8 µM (inactive). The GI50 with MDA-N was 15.1 µM (inactive); with NCI-H23 it was 17.5 µM (inactive); in the assay with OVCAR-4, 19 µM (inactive); in the assay with OVCAR-5, 18.4 µM (inactive); in the assay on OVCAR-8, 22.9 µM (inactive); with RXF 393 it was 16.3 µM (inactive). Besides, the GI50 was 16.4 µM (inactive) in the assay with SNB-75; 15.4 µM (inactive) with SR; 20.6 µM (inactive) with SW-620; 15.8 µM (inactive) in the assay on UACC-257; 14.5 µM (inactive) with UACC-62.
On to `ON[C@H]1C[C@@H](n2cnc3c(NC4CC4)ncnc32)[C@H](O)[C@@H]1O`, for which the GI50 in the assay on A498, with ACHN, in the assay with CAKI-1, in the assay with HCC 2998, in the assay with HT-29 and in the assay with K562 was > 100 µM (inactive) each time. The GI50 in the assay on MDA-N, in the assay with NCI-H23, with OVCAR-4, in the assay on OVCAR-5, in the assay on OVCAR-8 and in the assay with RXF 393 was > 100 µM (inactive) each time. Further, the GI50 with SN12C, in the assay with SNB-75, with SR, with SW-620, with UACC-257 and in the assay on UACC-62 was > 100 µM (inactive) each time.
For `NCCC1CN(C(=O)OCc2ccccc2)c2ccccc21` (stereo not given), the GI50 in the assay on A498 is > 37.2 µM (inactive); in the assay on ACHN, 22.6 µM (inactive); in the assay with CAKI-1, 21.4 µM (inactive); in the assay with HCC 2998, 16.6 µM (inactive); in the assay on HT-29, 12.5 µM (inactive); in the assay with K562, 4.58 µM (inactive). Further, the GI50 in the assay with MDA-N was 13.5 µM (inactive); in the assay on NCI-H23 it was 15 µM (inactive); in the assay on OVCAR-4, 20.4 µM (inactive); in the assay with OVCAR-5, 17.1 µM (inactive); in the assay on OVCAR-8, 8.17 µM (inactive); in the assay on RXF 393, 8.45 µM (inactive). Further, the GI50 with SN12C was 13.2 µM (inactive); in the assay on SNB-75, 12.3 µM (inactive); in the assay on SR, 2.9 µM (inactive); in the assay with SW-620, 6.67 µM (inactive); in the assay with UACC-257, 17.3 µM (inactive); in the assay with UACC-62 it was 15.6 µM (inactive).
Take `O=C(N/N=C/c1ccc(O)cc1)NNCCO`: the GI50 with A498, in the assay with CAKI-1, in the assay on HCC 2998, in the assay with HL-60, in the assay with HT-29 and with K562 was > 100 µM (inactive) each time. For the same molecule, the GI50 in the assay with MDA-N was > 100 µM (inactive); in the assay on NCI-H23 it was > 100 µM (inactive); in the assay with OVCAR-5, > 100 µM (inactive); in the assay with OVCAR-8 it was > 100 µM (inactive); in the assay on SN12C, > 100 µM (inactive); in the assay on SNB-75 it was 50.5 µM (inactive). The GI50 in the assay on SR, with SW-620, in the assay with UACC-257 and in the assay on UACC-62 was > 100 µM (inactive) throughout.
In the case of `O=C(c1ccccc1)c1c(-c2ccccc2)n(-c2ccccc2)[nH]c(=O)c1=O`, the GI50 was > 100 µM (inactive) with A498; 22.2 µM (inactive) with ACHN; 37.6 µM (inactive) with CAKI-1; > 100 µM (inactive) in the assay on HCC 2998; 32.2 µM (inactive) with HL-60; > 100 µM (inactive) in the assay with HT-29. Also, the GI50 was 14.8 µM (inactive) in the assay on K562; 50.1 µM (inactive) with MDA-N; 75 µM (inactive) in the assay on NCI-H23; 32.6 µM (inactive) with OVCAR-4; > 100 µM (inactive) in the assay on OVCAR-5; 46 µM (inactive) in the assay with OVCAR-8. Further, the GI50 was 69 µM (inactive) with SN12C, 23.8 µM (inactive) in the assay on SR, 70.1 µM (inactive) in the assay with UACC-257 and 12.3 µM (inactive) in the assay on UACC-62.
In the case of `CSc1ccc(-c2cc(-c3nc4ccccc4[nH]3)no2)cc1`, the GI50 in the assay with A498 is 30.8 µM (inactive); with ACHN, 25.2 µM (inactive); in the assay with CAKI-1, 23.6 µM (inactive); with HCC 2998, 16.2 µM (inactive); in the assay on HL-60 it was 21.6 µM (inactive); in the assay on HT-29 it was 24.8 µM (inactive). In addition, the GI50 in the assay with K562 was 22.1 µM (inactive); in the assay on MDA-N, 26.9 µM (inactive); in the assay on NCI-H23 it was 19.1 µM (inactive); with OVCAR-4, 0.0562 µM (active); in the assay with OVCAR-5, > 100 µM (inactive); in the assay on OVCAR-8 it was 35 µM (inactive). Moreover, the GI50 with SN12C was 50.2 µM (inactive); with SNB-75, 37.6 µM (inactive); in the assay on SR, 23.6 µM (inactive); in the assay on SW-620, 37 µM (inactive); in the assay with UACC-257, 30.2 µM (inactive); in the assay with UACC-62, 16.4 µM (inactive).
As for `CC(=O)OCc1nc(C#N)c(N)o1`, the GI50 with A498, in the assay with ACHN, with CAKI-1, in the assay on HCC 2998, in the assay on HL-60 and in the assay with HT-29 was > 100 µM (inactive) in each case. In addition, the GI50 with K562, in the assay with MDA-N, in the assay with NCI-H23, with OVCAR-4, in the assay on OVCAR-5 and with RXF 393 was > 100 µM (inactive) throughout. Moreover, the GI50 in the assay on SN12C, in the assay with SR, with SW-620, in the assay with UACC-257 and with UACC-62 was > 100 µM (inactive) each time.
Take `COC1CC(C)(N)C(O)C(C)O1` (stereo not given): the GI50 with A498, in the assay with ACHN, in the assay with CAKI-1, with HCC 2998, in the assay on HL-60 and with HT-29 was > 100 µM (inactive) in each case. Further, the GI50 with K562, in the assay with MDA-N, with NCI-H23, with OVCAR-8, with RXF 393 and in the assay on SN12C was > 100 µM (inactive) in each case. Also, the GI50 with SNB-75, with SR, in the assay with SW-620, in the assay with UACC-257 and in the assay with UACC-62 was > 100 µM (inactive) throughout.
For `COc1cc(NP(=O)(Oc2ccccc2)Oc2ccccc2)ccc1Nc1c2ccccc2nc2c1[nH]c1ccccc12`, the GI50 in the assay with A498 was 0.269 µM (active); in the assay with ACHN, 0.221 µM (active); in the assay with CAKI-1 it was 0.261 µM (active); in the assay with HCC 2998, 4.36 µM (inactive); in the assay on HT-29, 0.953 µM (active); with K562, 1.62 µM (inactive). Besides, the GI50 in the assay on MDA-N is 2.77 µM (inactive); in the assay on NCI-H23 it was 0.585 µM (active); with OVCAR-4 it was 3.22 µM (inactive); in the assay on OVCAR-5 it was 10.5 µM (inactive); in the assay with OVCAR-8 it was 1.23 µM (inactive); in the assay with RXF 393, 2.46 µM (inactive). Besides, the GI50 in the assay on SN12C was 0.327 µM (active); in the assay with SNB-75, 0.766 µM (active); with SR, < 0.0158 µM (active); with SW-620, 1.22 µM (inactive); in the assay on UACC-257 it was 7.71 µM (inactive); with UACC-62 it was 2.4 µM (inactive).

The values above are taken from ChEMBL document CHEMBL1201862, “PubChem BioAssay data set” (2004).
